Usually inhibition stands for the relative decrease from the control value, in per cent.

The structures appear in SMILES notation. Read-outs that look alike come from different tables or passages of the source.

From patent publication US20250213542A1, “DEVICES AND METHODS FOR DELIVERING SYNERGISTIC ACTIVE AGENTS TO TARGET SITES” (IRRIMAX Corporation, priority 2023, published 2025) come the findings set out here.

What all share (type): cell-based
Assay [1] has as its system E. coli (ATCC BAA 1427). In words: Minimum inhibitory concentration determination, serial 2-fold dilution. To be noted: Escherichia coli, BAA1427, 250 μg/mL (0.025% w/w), positive control, read-out: Average Growth Inhibition (%). The protocol: (§1) The minimal inhibitory concentration (MIC, the minimum inhibitory concentration required for 90% growth reduction) of octenidine was determined against S. aureus (ATCC 6538), P. aeruginosa (ATCC 15442), and E. coli (ATCC BAA 1427) by serial 2-fold dilution experiments. A solution of chlorhexidine (0.025% w/w) was used as a positive control and comparator.

In assay [2] the test system is P. aeruginosa (ATCC 15442). The description is as above. The following applies: Pseudomonas aeruginosa, ATCC15442, read-out: Average Growth Inhibition (%). The protocol:
as §1

The subject of assay [3] is S. aureus (ATCC 6538). The description is as above. To be noted: Staphylococcus aureus, ATCC6538, read-out: Average Growth Inhibition (%). The protocol:
as §1

The test system of assay [4] is E. coli (ATCC BAA 1427). In words: Minimal bactericidal concentration determination, serial 2-fold dilution. The protocol: (§2) The minimal bactericidal concentration (MBC) of octenidine dihydrochloride was determined against S. aureus (ATCC 6538), P. aeruginosa (ATCC 15442), and E. coli (ATCC BAA 1427) by serial 2-fold dilution experiments. A solution of chlorhexidine (0.025% w/w) was used as a positive control and comparator.

Assay [5] relates to P. aeruginosa (ATCC 15442). The assay is described as above. To be noted: 250 μg/mL (0.025% w/w), positive control. The protocol:
as §2

The subject of assay [6] is S. aureus (ATCC 6538). The assay is described as above. To be noted: 250 μg/mL (0.025% w/w), positive control. The protocol:
as §2

The subject of another assay is E. coli. In words: Chequerboard assay, FIC and synergy analysis. To be noted: Escherichia coli. The protocol:
(§3) Chlorhexidine gluconate (CHG) and octenidine dihydrochloride (OCT) were analyzed by chequerboard assay with each test organism to determine potential additive, synergistic, and antagonistic activity. The test organisms S. aureus, P. aeruginosa, and E. coli were tested at ranges of chlorhexidine gluconate (0.122-15.625 μg/ml, 1.25-160 μg/ml, and 0.125-16 μg/ml, respectively) and octenidine dihydrochloride (0.029-3.75 μg/mL, 0.029-3.75 μg/mL, and 0.029-3.75 μg/mL, respectively). FIC was calculated by the following Equation 2: […]

The subject of a further assay is P. aeruginosa. Description: Chequerboard assay, FIC and synergy analysis. The following applies: Pseudomonas aeruginosa. The protocol:
as §3

For the next assay, the system named is S. aureus. Description: Chequerboard assay, FIC and synergy analysis. The following applies: Staphylococcus aureus. The protocol: as §3
The mark [7] stands for this setting: in presence of OCT, read-out: MIC of CHG in Presence of OCT.

On to `N=C(NCCCCCCNC(=N)NC(=N)Nc1ccc(Cl)cc1)NC(=N)Nc1ccc(Cl)cc1` [Chlorhexidine gluconate, 1-[amino-[6-[amino-[amino-(4-chlorophenyl)amino-methylidene]amino-methylidene]aminohexylimino]methyl]imino-N-(4-chlorophenyl)-methanediamine; (2R,3S,4R,5R)-2,3,4,5,6-pentahydroxyhexanoic acid.], for which the values for the inhibition at 250 µg/mL (in the assay with E. coli (ATCC BAA 1427) [1]; in assay [2]; with S. aureus (ATCC 6538) [3]) were 63%, 81% and 121%, respectively. Besides, the CFU/mL (in the assay on E. coli (ATCC BAA 1427) [4]; in assay [5]; in the assay on S. aureus (ATCC 6538) [6]) was 0 CFU/mL each time. The “Number of Colonies” value with E. coli (ATCC BAA 1427) [4] is recorded as 0; with E. coli (ATCC BAA 1427) [4] (E. coli (ATCC BAA 1427), 250 μg/mL (0.025% w/w), positive control) it was “no colonies”; in assay [5], 0; in [5] (listed as chlorhexidine) it was “no colonies”; with S. aureus (ATCC 6538) [6], 0; with S. aureus (ATCC 6538) [6] (listed as chlorhexidine), “no colonies”. In addition, the MIC with E. coli (setting [7]) is 8 µg/mL; in the assay with E. coli (read-out: MIC of CHG Alone), 16 µg/mL; in the assay with P. aeruginosa (read-out: MIC of CHG Alone (μg/mL)), 32 µg/mL; in the assay with P. aeruginosa (read-out: MIC of CHG in Presence of OCT (μg/mL)) it was 16 µg/mL; in the assay with S. aureus (setting [7]), 2 µg/mL; in the assay on S. aureus (read-out: MIC of CHG Alone), 4 µg/mL.
